“Also recorded” adds a separate entry of the source.
How the values were obtained:
[1] = system: NMO mouse model; test: Mouse NMO model, more severe disease (25×10^6 Th17-polarized cells), disease scores, blinded study (Example 3); format: in vivo, C57BL/6 mice; details: for End Score (end disease score +/− SD): Day 17 post-transfer, AAT 2 mg or both i.p. daily Day 4 to Day 16; for End Score (end disease score +/− SD) / MMS +/− SD (mean maximum disease score) / Mean Day of Onset +/− SEM: Mpred 0.5 mg; for MMS +/− SD (mean maximum disease score) / Mean Day of Onset +/− SEM: AAT 2 mg or both i.p. daily Day 4 to Day 16 post-transfer; for Mean Day of Onset +/− SEM: 10 mice per cohort
Description: 25×10^6 cells prepared as above were adoptively transferred i.p. into recipient C57BL/6 mice. Mice received PBS, Mpred (0.5 mg), AAT (2 mg), or both AAT+Mpred as daily doses administered i.p. starting on Day 4 post-transfer until Day 16 post-transfer. Ten recipient mice per cohort. […] The bold p-values indicate significant (p<0.05) differences between the treatments when compared to PBS (control).

[2] = system: NMO mouse model, spines (cervical, thoracic and lumbar sections); test: Spine histopathology scores in NMO mouse model, blinded study (Example 3); format: in vivo, C57BL/6 mice; details: spines collected Day 18; for Demyelination (H + E) score +/− SD: hematoxylin and eosin stained section, 4 mice per cohort
Text: An NMO mouse model as described above was used. Spines were collected from 4 mice per treatment cohort on Day 18 and prepared for histology. Sections from cervical, thoracic and lumbar spine regions were scored and averaged. […] Bold formatting indicates significant (p<0.05) difference of treatment compared to PBS (control).

[3] = system: murine model of NMO; test: Murine model of NMO, less severe disease (12×10^6 Th17-polarized cells), disease score (Example 2); format: in vivo, C57BL/6 mice; details: FIG. 2
Description: Blood-derived human A1AT was compared to Sivelestat in a murine model of NMO. A less severe disease was induced when 12×10^6 Th17-polarized cells were adoptively transferred i.p. into recipient C57BL/6 mice. To induce Th17-polarized cells, C57BL/6 mice were induced with MOG35-55/CFA. 11 days later, their spleen cells were harvested and restimulated in culture with MOG35-55 peptide (Miller et al., supra) for 3 days.
Mice received PBS, Sivelestat (0.5 mg), or A1AT (2 mg) as daily doses administered i.p. starting on Day 5 post-transfer until Day 18 post-transfer. There were 10 recipient mice per cohort. Error bars represent SEM. Points where A1AT compared to PBS and mean disease scores were significant (p<0.05) are indicated (*).

[4] = system: Neuromyelitis Optica (NMO) induced by the adoptive transfer of Th17 Experimental Autoimmune Encephalomyelitis (EAE) cells; test: NMO induced by adoptive transfer of Th17 EAE cells (15×10^6 cells), clinical scores (Example 1); format: in vivo, C57BL/6 mice; details: 2 mg A1AT in PBS i.p. daily day 5 to day 18; vs PBS; n=10 mice per group
Text: C57BL/6 donor mice were immunized via subcutaneous injection with MOG-35-55 peptide in complete Freund's Adjuvant. This induces Experimental Autoimmune Encephalomyelitis (EAE), an animal model for progressive multiple sclerosis. (Miller et al., Curr. Protoc. Immunol., Chapter Unit 15.1 (2007); incorporated herein by reference in its entirety). The mice were boosted […] via intraperitoneal injection with Pertussis toxin on day 0, 2, and 7 days post-immunization. Mice were sacrificed and spleens and lymph nodes collected and resuspended into single cell suspensions. Cells were cultured with MOG peptide and IL-23 to increase Th17 skewing and cultured for 3 days. Cells were harvested and approximately 15×10̂6 cells were adoptively transferred into recipient C57BL/6 mice via intraperitoneal injection. Starting day 5 for 2 weeks until day 18, mice were administered daily via intraperitoneal injection with 100 uL of PBS or A1AT (2 mg A1AT formulated in PBS). Clinical scores were measured each day at approximately the same time of day. Clinical scores measure ascending paralysis. A score of 1 is a limp tail. A score of 2 includes hind limb weakness. A score of 3 includes hind limb paralysis. A score of 4 includes forelimb weakness. A score of 5 is indicated by death. (See Miller et al.).

[5] = system: spleen cells of Th17-polarized cell transplanted mice restimulated with MOG peptide; test: Ex vivo cytokine measurements from spleen cells restimulated with MOG peptide, cytokine bead assay (Example 4); format: in vivo
Description: Ex vivo cytokine measurements from spleen cells of Th17-polarized cell transplanted mice restimulated with MOG peptide were conducted to survey effector and memory recall responses of the immune cell compartment, primarily from T cells. Spleens were collected from 6 mice per treatment cohort on Day 18. Single cell suspensions were prepared and cultured with the indicated amounts of MOG35-55 peptide. Supernatants were collected after 3 days of culture and IL-17A, IFN-γ, IL-6, or IL-2 measured by cytokine bead assay (BD Biosciences, San Jose, Calif., Cat. No. 560485). The results in this blinded study were expressed in cytokine pg/mL+/−SEM.

Row | Molecule | End Score (end disease score +/− SD) [1] | Mean disease scores over days measured ([1]; FIG. 3, 10 recipient mice per cohort, vs PBS or either treatment alone) | MMS +/− SD (mean maximum disease score) [1] | Mean Day of Onset +/− SEM [1] | Demyelination (H + E) score +/− SD [2] | Apoptotic Cells +/− SD (apoptotic cell counts) ([2]; 4 mice per treatment cohort) | Onset of disease ([3]; A1AT 2 mg i.p. daily Day 5 to Day 18 post-transfer) | NMO disease score ([3]; A1AT 2 mg or Sivelestat 0.5 mg i.p. daily Day 5 to Day 18 post-transfer, vs PBS) | Clinical scores (ascending paralysis) [4] | IL-17A ([5]; spleens Day 18, 6 mice per cohort, supernatants after 3 days culture with MOG35-55, FIG. 5A) | IFN-γ ([5]; spleens Day 18, 6 mice per cohort, supernatants after 3 days culture with MOG35-55, FIG. 5B) | IL-2 ([5]; without antigenic restimulation (0 MOG peptide), compared to Mpred alone, FIG. 5D) | Inflammatory foci +/− SD (number of inflammatory foci per section >20 cells) ([2]; 4 mice per treatment cohort)
1 | alpha-1 antitrypsin [A1AT] | 3.10 +/− 0.57 | early efficacy compared to Mpred alone and PBS (control) on Day 5 and 6 but afterwards did not show therapeutic effect | 3.50 +/− 0.00 | 8.4 +/− 0.4 | 1.8 +/− 0.4 | 2.5 +/− 0.3 | delay onset of disease | reduced the NMO disease score compared to PBS (control) and was superior to Sivelestat at all days of overt signs of disease | significant improvement when compared to PBS treatment | decreased the inflammatory cytokines IL-17A compared to PBS and Mpred alone; also recorded: decreased the inflammatory cytokine IL-17A when compared to PBS and Mpred alone | decreased the inflammatory cytokine IFN-γ when compared to Mpred alone | IL-2 levels were higher without antigenic restimulation (0 MOG peptide) | –
2 | C[C@H]1C[C@@H]2[C@H]([C@@H](O)C[C@@]3(C)[C@H]2CC[C@]3(O)C(=O)CO)[C@@]2(C)C=CC(=O)C=C12 [Mpred, methylprednisolone, reference compound] | 2.25 +/− 0.42 | – | 2.95 +/− 0.44 | 8.5 +/− 0.4 | 1.2 +/− 0.3 | 1.3 +/− 0.9 | – | – | – | – | – | – | 3.0 +/− 0.9

— patent US20180050082A1, “SERPINS FOR THE TREATMENT OF NEUROINFLAMMATORY DISEASES” (Anvil Biosciences, LLC, priority 2015, published 2018)
